In article PMC3763632, “Radiosynthesis and Radiotracer Properties of a 7-(2-[^18F]Fluoroethoxy)-6-methoxypyrrolidinylquinazoline for Imaging of Phosphodiesterase 10A with PET” (Pharmaceuticals, 2012):
“And” between values parts separate entries of the source, which are not always exact repeats. Identical values can stand only once.

Assay: Biodistribution after i.v. injection
Format: in vivo, female CD-1 mice
Procedure: The organ distribution of [^18F]IV after i.v. injection was investigated in female CD-1 mice. Time-activity data for ^18F corresponding uptake in peripheral organs, in the brain and in particular in the striatum at 5, 30, 60 and 120 min p.i. are presented in Table 2.
Conscious mice received a tail-vein injection of about 300 kBq of [^18F]IV, dissolved in 200 µL isotonic saline. At 5, 30, 60 and 120 min p.i. animals (n = 3–6 per time) were anaesthetized, and blood and urine samples were taken. After sacrifice, organs of interest were removed, separated, weighed, and radioactivity was measured in a calibrated γ-counter (Wallac WIZARD, Perkin Elmer, Waltham, MA, USA). Striatum was dissected from the brain and investigated separately. The percentage of the injected dose per gram of wet tissue (% ID/g) was calculated by the quotient of tissue counts and initial dose counts, and weight of the tissue sample.

COc1cc2c(N3CC[C@@H](Oc4cnc5ccccc5n4)C3)ncnc2cc1OCC[18F] [[^18F]IV, (R)-7-(2-[^18F]Fluoroethoxy)-6-methoxy-4-(3-(quinoxalin-2-yloxy)pyrrolidin-1-yl)quinazoline]
striatum-to-blood ratio (30 min p.i., mice): 1.0
striatum-to-blood ratio (60 min p.i., mice): 0.8
striatum-to-blood ratio (120 min p.i., mice): 0.8
18F uptake, Adrenals (control, 5 min p.i.): 25.4 ± 5.87 % ID/g Wet Weight
18F uptake, Bladder (control, 5 min p.i.): 1.85 ± 0.39 % ID/g Wet Weight
18F uptake, Blood (control, 5 min p.i.): 1.88 ± 0.08 % ID/g Wet Weight
18F uptake, Brain (control, 5 min p.i.): 1.99 ± 0.21 % ID/g Wet Weight
18F uptake, Colon (control, 5 min p.i.): 0.55 ± 0.05 % ID/g Wet Weight
18F uptake, Femurs (control, 5 min p.i.): 2.00 ± 0.36 % ID/g Wet Weight
18F uptake, Femurs (fl.) (flushed) (control, 5 min p.i.): 1.11 ± 0.32 % ID/g Wet Weight
18F uptake, Gonads (control, 5 min p.i.): 2.58 ± 0.46 % ID/g Wet Weight
18F uptake, Heart (control, 5 min p.i.): 4.01 ± 0.47 % ID/g Wet Weight
18F uptake, Intestine (control, 5 min p.i.): 13.5 % ID/g Wet Weight and 13.5 ± 4.15 % ID/g Wet Weight
18F uptake, Kidneys (control, 5 min p.i.): 7.65 ± 0.54 % ID/g Wet Weight
18F uptake, Liver (control, 5 min p.i.): 20.5 % ID/g Wet Weight and 20.5 ± 1.87 % ID/g Wet Weight
18F uptake, Lungs (control, 5 min p.i.): 4.01 ± 0.51 % ID/g Wet Weight
18F uptake, Muscles (control, 5 min p.i.): 1.75 ± 0.12 % ID/g Wet Weight
18F uptake, Pancreas (control, 5 min p.i.): 5.19 ± 0.42 % ID/g Wet Weight
18F uptake, Plasma (control, 5 min p.i.): 3.97 ± 1.41 % ID/g Wet Weight
18F uptake, Spleen (control, 5 min p.i.): 4.23 ± 0.51 % ID/g Wet Weight
18F uptake, Stomach (control, 5 min p.i.): 6.14 ± 2.04 % ID/g Wet Weight
18F uptake, Striatum (control, 5 min p.i.): 2.3 % ID/g Wet Weight and 2.32 % ID/g Wet Weight and 2.32 ± 0.49 % ID/g Wet Weight
18F uptake, Thymus (control, 5 min p.i.): 3.10 ± 0.45 % ID/g Wet Weight
18F uptake, Urine (control, 5 min p.i.): 56.4 % ID/g Wet Weight and 56.4 ± 105 % ID/g Wet Weight
18F uptake, Bladder (control, 30 min p.i.): 3.51 ± 1.39 % ID/g Wet Weight
18F uptake, Blood (control, 30 min p.i.): 1.69 ± 0.38 % ID/g Wet Weight
18F uptake, Brain (control, 30 min p.i.): 1.54 ± 0.30 % ID/g Wet Weight
18F uptake, Colon (control, 30 min p.i.): 0.88 ± 0.44 % ID/g Wet Weight
18F uptake, Femurs (control, 30 min p.i.): 2.14 ± 1.13 % ID/g Wet Weight
18F uptake, Femurs (fl.) (flushed) (control, 30 min p.i.): 0.67 ± 0.24 % ID/g Wet Weight
18F uptake, Gonads (control, 30 min p.i.): 3.94 ± 0.84 % ID/g Wet Weight
18F uptake, Heart (control, 30 min p.i.): 2.93 ± 0.71 % ID/g Wet Weight
18F uptake, Intestine (control, 30 min p.i.): 43.2 ± 21.9 % ID/g Wet Weight
18F uptake, Kidneys (control, 30 min p.i.): 5.34 ± 1.4 % ID/g Wet Weight
18F uptake, Liver (control, 30 min p.i.): 16.4 ± 4.00 % ID/g Wet Weight
18F uptake, Lungs (control, 30 min p.i.): 3.51 ± 1.26 % ID/g Wet Weight
18F uptake, Muscles (control, 30 min p.i.): 1.31 ± 0.32 % ID/g Wet Weight
18F uptake, Pancreas (control, 30 min p.i.): 3.14 ± 0.70 % ID/g Wet Weight
18F uptake, Plasma (control, 30 min p.i.): 2.87 ± 0.54 % ID/g Wet Weight
18F uptake, Spleen (control, 30 min p.i.): 2.85 ± 0.60 % ID/g Wet Weight
18F uptake, Stomach (control, 30 min p.i.): 15.8 ± 6.09 % ID/g Wet Weight
18F uptake, Striatum (control, 30 min p.i.): 1.69 ± 0.44 % ID/g Wet Weight
18F uptake, Thymus (control, 30 min p.i.): 2.61 ± 0.50 % ID/g Wet Weight
18F uptake, Urine (control, 30 min p.i.): 18.5 ± 16.8 % ID/g Wet Weight
18F uptake, Adrenals (control, 60 min p.i.): 28.2 ± 11.4 % ID/g Wet Weight
18F uptake, Bladder (control, 60 min p.i.): 2.60 ± 0.78 % ID/g Wet Weight
18F uptake, Blood (control, 60 min p.i.): 1.45 ± 0.20 % ID/g Wet Weight
18F uptake, Brain (control, 60 min p.i.): 1.08 ± 0.26 % ID/g Wet Weight
18F uptake, Colon (control, 60 min p.i.): 1.08 ± 0.43 % ID/g Wet Weight
18F uptake, Femurs (control, 60 min p.i.): 2.95 ± 3.73 % ID/g Wet Weight
18F uptake, Femurs (fl.) (flushed) (control, 60 min p.i.): 0.58 ± 0.42 % ID/g Wet Weight
18F uptake, Gonads (control, 60 min p.i.): 3.50 ± 1.22 % ID/g Wet Weight
18F uptake, Heart (control, 60 min p.i.): 2.16 ± 0.45 % ID/g Wet Weight
18F uptake, Intestine (control, 60 min p.i.): 42.8 % ID/g Wet Weight and 42.8 ± 33.5 % ID/g Wet Weight
18F uptake, Kidneys (control, 60 min p.i.): 4.29 ± 0.93 % ID/g Wet Weight
18F uptake, Liver (control, 60 min p.i.): 14.5 ± 4.54 % ID/g Wet Weight
18F uptake, Lungs (control, 60 min p.i.): 2.37 ± 0.62 % ID/g Wet Weight
18F uptake, Muscles (control, 60 min p.i.): 1.22 ± 0.28 % ID/g Wet Weight
18F uptake, Pancreas (control, 60 min p.i.): 2.77 ± 0.85 % ID/g Wet Weight
18F uptake, Plasma (control, 60 min p.i.): 2.59 ± 0.36 % ID/g Wet Weight
18F uptake, Spleen (control, 60 min p.i.): 2.30 ± 0.25 % ID/g Wet Weight
18F uptake, Stomach (control, 60 min p.i.): 12.6 ± 5.08 % ID/g Wet Weight
18F uptake, Striatum (control, 60 min p.i.): 1.14 ± 0.29 % ID/g Wet Weight
18F uptake, Thymus (control, 60 min p.i.): 2.08 ± 0.51 % ID/g Wet Weight
18F uptake, Urine (control, 60 min p.i.): 23.1 ± 9.31 % ID/g Wet Weight
18F uptake, Skin (control, 60 min p.i., single values, n = 2): 1.45 % ID/g Wet Weight and 1.17 % ID/g Wet Weight
18F uptake, Adrenals (control, 120 min p.i.): 19.3 ± 13.2 % ID/g Wet Weight
18F uptake, Bladder (control, 120 min p.i.): 1.62 ± 0.28 % ID/g Wet Weight
18F uptake, Blood (control, 120 min p.i.): 1.05 ± 0.10 % ID/g Wet Weight
18F uptake, Brain (control, 120 min p.i.): 0.77 ± 0.10 % ID/g Wet Weight
18F uptake, Colon (control, 120 min p.i.): 3.49 ± 2.41 % ID/g Wet Weight
18F uptake, Femurs (control, 120 min p.i.): 1.61 ± 0.35 % ID/g Wet Weight
18F uptake, Femurs (fl.) (flushed) (control, 120 min p.i.): 1.15 ± 0.18 % ID/g Wet Weight
18F uptake, Gonads (control, 120 min p.i.): 1.64 ± 0.26 % ID/g Wet Weight
18F uptake, Heart (control, 120 min p.i.): 1.33 ± 0.20 % ID/g Wet Weight
18F uptake, Intestine (control, 120 min p.i.): 49.3 ± 8.03 % ID/g Wet Weight
18F uptake, Kidneys (control, 120 min p.i.): 2.13 ± 0.44 % ID/g Wet Weight
18F uptake, Liver (control, 120 min p.i.): 7.05 % ID/g Wet Weight and 7.05 ± 1.10 % ID/g Wet Weight
18F uptake, Lungs (control, 120 min p.i.): 1.46 ± 0.26 % ID/g Wet Weight
18F uptake, Muscles (control, 120 min p.i.): 0.66 ± 0.01 % ID/g Wet Weight
18F uptake, Pancreas (control, 120 min p.i.): 1.41 ± 0.07 % ID/g Wet Weight
18F uptake, Plasma (control, 120 min p.i.): 2.13 ± 0.80 % ID/g Wet Weight
18F uptake, Spleen (control, 120 min p.i.): 1.21 ± 0.24 % ID/g Wet Weight
18F uptake, Stomach (control, 120 min p.i.): 10.1 ± 5.96 % ID/g Wet Weight
18F uptake, Striatum (control, 120 min p.i.): 0.83 ± 0.10 % ID/g Wet Weight
18F uptake, Thymus (control, 120 min p.i.): 1.26 ± 0.07 % ID/g Wet Weight
18F uptake, Urine (control, 120 min p.i.): 30.9 % ID/g Wet Weight and 30.9 ± 8.06 % ID/g Wet Weight
uptake of radioactivity in femur (mice, time not specified): ~ 2 % ID/g
uptake of radioactivity in femur after removal of bone marrow (mice, time not specified): about 1 % ID/g
